Publication PMC10224544, “Synthesis, Structural Elucidation and Pharmacological Applications of Cu(II) Heteroleptic Carboxylates” (Pharmaceuticals, 2023)
Where two headings read alike, the source gives them in different places.

Tests used:
DPPH scavenging assay [1] = details: for DPPH Free Radical Scavenging Ability: mean ± S.E.M, n = 3
Excerpt: The antioxidant potential of the free acids and their Cu(II) carboxylates was explored via the DPPH method using ascorbic acid as a reference. The DPPH, with a single unpaired electron, is capable of accepting a hydrogen or electron and gives a strong absorption at 517 nm. The absorption generally decreases when it accepts a hydrogen or electron from an antioxidant, forming a stable molecule. The results given in Table 5 indicate that the compounds under study show a moderate level of antioxidant potential. This activity may be attributed to the various structural and electronic factors like coordination geometry, redox properties, chelate ring size, degree of unsaturation, etc.. The transfer of proton or electron from an antioxidant to DPPH results in the formation of species that undergo other reactions like coupling, fragmentation, and addition, which affect the rate and stoichiometry of the reaction.
The compounds under study were subjected to DPPH scavenging ability test as per cited literature. A 0.004% solution of reagent DPPH was added to the different concentrations of tested compounds (i.e., 125, 250, 500 and 1000 μg/mL) and the reaction mixture was incubated subsequently for about thirty minutes in dark. Ascorbic acid was used as positive control. The UV-3000 O.R.I. Germany was used to record the change in absorption of the reaction mixture at 517 nm and the percentage scavenging ability of the compounds under study was determined using formula: % scavenging activity =Absorbance of control−Absorbance of compounds /Absorbance of control×100
The experiments were repeated thrice. The GraphPad Prism® (version 4.0, Sandiego, CA, USA) was used to calculate the IC50 values.

[2] = Hydrogen peroxide scavenging assay; details: for H2O2 free radical scavenging ability: mean ± S.E.M, n = 3
Method: In addition to DPPH the ligand acids and their complexes were also evaluated for their peroxide scavenging ability test. Hydrogen peroxide (H2O2) is a biologically important, non-radical reactive oxygen species (ROS) that can influence several cellular processes. It is a weak oxidizing agent and can inactivate a few enzymes directly, usually via oxidation of essential thiol (-SH) groups. It can cross cell membranes rapidly, and inside the cell, H2O2 probably reacts with Fe^2+ (and possibly Cu^2+) ions to form the hydroxyl radical, which may be the origin of many of its toxic effects. It is, therefore, biologically advantageous for cells to control the amount of hydrogen peroxide that is allowed to accumulate.
The ligand acids and their Cu(II) carboxylates were further subjected to H2O2 scavenging ability test potential by following the procedure as per cited literature. A 2 mM solution of H2O2 was made in 50 mM phosphate buffer having a pH 7.4. In the next step, 0.1 mL of the screened compounds was added to the 0.3 mL (50 mM) of phosphate buffer, then 0.6 mL of H2O2 was added and the solution was vortexed. After following the incubation period of 10 min, the absorption was 230 nm in comparison to the blank.

[3] = molecular target: acetylcholinesterase (AChE) (Electrophorus electricus, UniProt O42275); test: biochemical; assay type: biochemical; details: for inhibition at 62.5 µg/mL / inhibition at 125 µg/mL / inhibition at 250 µg/mL / inhibition at 500 µg/mL / inhibition at 1000 µg/mL: read-out: Inhibition of Acetylcholinesterase (%AChE Activity)
Method: The synthesized compounds were evaluated for acetylcholinesterase (ACh) and butyrylcholinesterase (BCh) enzyme inhibitory activities.
(§1) The enzymes acetylcholinesterase (AChE) and butyrylcholinesterase (BChE) play an important role in the transfer of signals and physiological function. They assist acetylcholine to hydrolyze and produce choline and acetyl group in synaptic region. So, they are considered as targets in the management of Alzheimer’s disease. Herein, the compounds under study were evaluated for their potential to inhibit acetylthiocholine iodide (AChI) and butyrylthiocholine iodide (BChI) enzymes.
(§2) The well-known Ellman’s assay was implemented to evaluate the inhibitory potential using acetylthiocholine iodide (AChI) and butyrylthiocholine iodide (BChI) as substrates, respectively. The basic principle of the assay is the hydrolysis of acetylthiocholine iodide and butyrylthiocholine iodide by their corresponding enzymes, resulting in the formation of 5-thio-2-nitrobenzoate anion.
(§3) To carry out the assay, 0.1 M buffer solution with pH 8 was prepared as per the cited literature where the pH was adjusted using KOH (potassium hydroxide). Using the freshly prepared buffer and following the dilution, final concentrations of 0.03 U/mL for AChE (518 U/mg solid) and 0.01 U/mL for BChE (7–16 U/mg) were obtained. […] After that, the final solution of each of the AChE and BChE was prepared in distilled water in the presence of […] DTNB and were stored at 8 °C. The experiment was performed by taking 205 µL of inhibitor (tested compound) along with 5 µL of prepared solutions of enzymes, followed by the addition of 5 μL DTNB reagent. They were then incubated for about 15 min in a water bath at a temperature of 30 °C. Later on, 5 µL substrate solution was added to them which were subjected to absorption check at 412 nm. […] The temperature of the spectrophotometer was adjusted at 30 °C and then, following the reaction time of 4 min, the absorbance values were noted after regular intervals. The experiment was repeated, and change in absorption with time was used to calculate the percentage activity of enzyme and enzyme inhibitor [59]. The p values, or calculated probability levels, are categorized as: 5% (p < 0.05), 1% (p < 0.01) and 0.1% (p < 0.001). p < 0.05 means statistically significant and p < 0.001 means highly statistically significant.

[4] = molecular target: butyrylcholinesterase (BChE) (Equus caballus, UniProt P81908); test: biochemical; details: for inhibition at 62.5 µg/mL / inhibition at 125 µg/mL / inhibition at 250 µg/mL / inhibition at 500 µg/mL / inhibition at 1000 µg/mL: read-out: inhibition of butyrylcholinesterase (% BChE activity)
Method: as §1, §2, §3

DPPH scavenging assay [5] = details: Comp. Conc. 62.5 µg/mL; mean ± S.E.M, n = 3

Chain of acetylcholinesterase (AChE) (O42275 24-633): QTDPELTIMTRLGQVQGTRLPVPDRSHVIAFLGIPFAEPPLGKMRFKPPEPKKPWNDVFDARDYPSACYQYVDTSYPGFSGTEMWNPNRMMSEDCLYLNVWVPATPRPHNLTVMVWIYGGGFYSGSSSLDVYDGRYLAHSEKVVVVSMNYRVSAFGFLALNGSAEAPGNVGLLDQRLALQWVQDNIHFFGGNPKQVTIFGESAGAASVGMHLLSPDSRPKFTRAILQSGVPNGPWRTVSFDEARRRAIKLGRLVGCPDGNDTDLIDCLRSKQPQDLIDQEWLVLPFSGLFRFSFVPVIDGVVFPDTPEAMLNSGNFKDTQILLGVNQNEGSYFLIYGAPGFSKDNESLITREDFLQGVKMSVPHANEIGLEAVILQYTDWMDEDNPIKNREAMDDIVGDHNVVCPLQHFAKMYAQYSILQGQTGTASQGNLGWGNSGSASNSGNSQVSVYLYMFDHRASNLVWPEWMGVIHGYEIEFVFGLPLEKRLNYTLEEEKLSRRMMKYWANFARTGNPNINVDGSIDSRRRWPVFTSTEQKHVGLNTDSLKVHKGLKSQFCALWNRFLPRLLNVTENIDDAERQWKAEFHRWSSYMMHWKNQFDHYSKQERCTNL
Chain of butyrylcholinesterase (BChE) (P81908 whole entry): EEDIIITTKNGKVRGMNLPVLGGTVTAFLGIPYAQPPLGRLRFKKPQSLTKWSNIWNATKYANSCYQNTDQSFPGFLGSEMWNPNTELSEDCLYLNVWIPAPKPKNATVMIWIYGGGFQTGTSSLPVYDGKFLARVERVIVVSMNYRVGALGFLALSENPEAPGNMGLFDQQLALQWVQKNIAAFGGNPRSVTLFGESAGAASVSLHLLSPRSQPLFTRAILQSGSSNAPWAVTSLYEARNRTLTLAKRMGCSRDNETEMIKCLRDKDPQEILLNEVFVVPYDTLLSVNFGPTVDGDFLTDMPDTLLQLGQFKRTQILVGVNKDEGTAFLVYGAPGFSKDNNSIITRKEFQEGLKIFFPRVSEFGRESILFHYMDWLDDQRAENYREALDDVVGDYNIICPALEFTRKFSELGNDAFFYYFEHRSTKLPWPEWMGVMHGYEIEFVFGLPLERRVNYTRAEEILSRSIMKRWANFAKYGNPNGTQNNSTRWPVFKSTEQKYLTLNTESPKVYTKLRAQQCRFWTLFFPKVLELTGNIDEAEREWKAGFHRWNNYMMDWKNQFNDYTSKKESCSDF

SMILES | IC50, DPPH Free Radical Scavenging Ability (DPPH scavenging assay [1]) [µg/mL] | DPPH Free Radical Scavenging Ability (DPPH scavenging assay [1]; Comp. Conc. 125 µg/mL) | DPPH Free Radical Scavenging Ability (DPPH scavenging assay [1]; Comp. Conc. 250 µg/mL) [%] | DPPH Free Radical Scavenging Ability (DPPH scavenging assay [1]; Comp. Conc. 500 µg/mL) [%] | DPPH Free Radical Scavenging Ability (DPPH scavenging assay [1]; Comp. Conc. 1000 µg/mL) [%] | H2O2 free radical scavenging ability ([2]; Comp. Conc. 62.5 µg/mL) [%] | H2O2 free radical scavenging ability ([2]; Comp. Conc. 125 µg/mL) | H2O2 free radical scavenging ability ([2]; Comp. Conc. 250 µg/mL) [%] | H2O2 free radical scavenging ability ([2]; Comp. Conc. 500 µg/mL) [%] | H2O2 free radical scavenging ability ([2]; Comp. Conc. 1000 µg/mL) [%] | IC50, Inhibition of Acetylcholinesterase [3] [µg/mL] | Inhibition of Acetylcholinesterase (%AChE Activity) ([3]; Comp. Conc. 62.5 µg/mL, n = 3) [%] | Inhibition of Acetylcholinesterase (%AChE Activity) ([3]; Comp. Conc. 125 µg/mL, n = 3) | Inhibition of Acetylcholinesterase (%AChE Activity) ([3]; Comp. Conc. 250 µg/mL, n = 3) | Inhibition of Acetylcholinesterase (%AChE Activity) ([3]; Comp. Conc. 500 µg/mL, n = 3) | Inhibition of Acetylcholinesterase (%AChE Activity) ([3]; Comp. Conc. 1000 µg/mL, n = 3) | IC50, inhibition of butyrylcholinesterase [4] [µg/mL] | inhibition of butyrylcholinesterase (% BChE activity) ([4]; Comp. Conc. 62.5 µg/mL, n = 3) [%] | inhibition of butyrylcholinesterase (% BChE activity) ([4]; Comp. Conc. 125 µg/mL, n = 3) [%] | inhibition of butyrylcholinesterase (% BChE activity) ([4]; Comp. Conc. 250 µg/mL, n = 3) [%] | also measured
N#Cc1ccncc1.N#Cc1ccncc1.O=C([O-])Cc1ccccc1Cl.O=C([O-])Cc1ccccc1Cl.O=C([O-])Cc1ccccc1Cl.O=C([O-])Cc1ccccc1Cl.[Cu+2].[Cu+2] [Complex 2, Cu2(2-ClC6H4COO)4(4-CNPy)2] | 3.22 | 81.20 ± 0.65 ^⸙ % | 86.98 ± 0.85 | 91.17 ± 0.53 | 95.20 ± 0.15 | 74.17 ± 0.72 | 79.60 ± 0.90 ^⸸ % | 85.50 ± 0.40 | 89.37 ± 1.65 | 93.55 ± 0.40 | 2 | 71.73 ± 0.66 | 73.70 ± 0.35 ^⸙ % | 78.07 ± 0.62 ^⸸ % | 83.01 ± 0.42 ^⸸ % | 87.50 ± 2.26 ^⸙ % | 04 | 66.29 ± 0.43 | 67.23 ± 0.44 | 72.83 ± 1.07 | IC50, H2O2 free radical scavenging ability [2]: 4.50 µg/mL; inhibition of butyrylcholinesterase (% BChE activity) ([4]; Comp. Conc. 500 µg/mL, n = 3): 76.87 ± 0.39 %; inhibition of butyrylcholinesterase (% BChE activity) ([4]; Comp. Conc. 1000 µg/mL, n = 3): 81.44 ± 0.09 %; DPPH Free Radical Scavenging Ability (DPPH scavenging assay [5]): 77.80 ± 0.37 ^⸙ %
O=C([O-])Cc1ccccc1Cl.O=C([O-])Cc1ccccc1Cl.O=C([O-])Cc1ccccc1Cl.O=C([O-])Cc1ccccc1Cl.Oc1ccncc1.Oc1ccncc1.[Cu+2].[Cu+2] [Complex 3, Cun(2-ClC6H4COO)4(4-OHPy)2] | 21.72 | 62.50 ± 0.44 % | 66.33 ± 0.33 | 74.66 ± 1.20 | 79.00 ± 0.16 | 61.30 ± 0.52 | 66.37 ± 0.58 % | 72.29 ± 0.43 | 78.58 ± 0.56 | 84.39 ± 0.60 | 17 | 62.98 ± 0.72 | 67.90 ± 0.96 % | 72.91 ± 0.88 % | 77.08 ± 0.47 % | 81.03 ± 0.35 % | 25 | 60.2 ± 0.98 | 63.3 ± 1.10 | 68.2 ± 0.88 | IC50, H2O2 free radical scavenging ability [2]: 11.47 µg/mL; inhibition of butyrylcholinesterase (% BChE activity) ([4]; Comp. Conc. 500 µg/mL, n = 3): 73.2 ± 0.98 %; inhibition of butyrylcholinesterase (% BChE activity) ([4]; Comp. Conc. 1000 µg/mL, n = 3): 76.8 ± 1.20 %; DPPH Free Radical Scavenging Ability (DPPH scavenging assay [5]): 53.00 ± 0.57 %
N#Cc1cccnc1.N#Cc1cccnc1.O=C([O-])Cc1ccccc1Cl.O=C([O-])Cc1ccccc1Cl.O=C([O-])Cc1ccccc1Cl.O=C([O-])Cc1ccccc1Cl.[Cu+2].[Cu+2] [Complex 1, Cu2(2-ClC6H4COO)4(3-CNPy)2] | 17.69 | 61.40 ± 0.51 % | 67.44 ± 0.55 | 73.47 ± 0.52 | 78.39 ± 0.49 | 53.50 ± 0.73 | 62.42 ± 0.57 % | 70.32 ± 0.52 | 74.27 ± 0.57 | 80.30 ± 0.64 | 39 | 55.67 ± 0.61 | 62.69 ± 0.77 % | 67.83 ± 0.56 % | 72.60 ± 0.80 % | 77.61 ± 0.77 % | 12 | 64.53 ± 0.71 | 68.51 ± 0.77 | 71.75 ± 0.58 | inhibition of butyrylcholinesterase (% BChE activity) ([4]; Comp. Conc. 500 µg/mL, n = 3): 76.45 ± 0.49 %; inhibition of butyrylcholinesterase (% BChE activity) ([4]; Comp. Conc. 1000 µg/mL, n = 3): 81.79 ± 0.62 %; DPPH Free Radical Scavenging Ability (DPPH scavenging assay [5]): 55.57 ± 0.84 %
O=C(O)Cc1ccccc1Cl [L^1, 2-chlorophenyl acetic acid] |  |  |  |  |  |  |  |  |  |  |  |  |  |  |  |  |  |  |  |  | inhibition at 62.5 µg/mL ([3]; Comp. Conc. 62.5 µg/mL, n = 3): 50.35 ± 0.11%; inhibition at 125 µg/mL ([3]; Comp. Conc. 125 µg/mL, n = 3): 54.02 ± 0.24%; inhibition at 250 µg/mL ([3]; Comp. Conc. 250 µg/mL, n = 3): 57.34 ± 0.35%; inhibition at 500 µg/mL ([3]; Comp. Conc. 500 µg/mL, n = 3): 62.29 ± 0.32%; inhibition at 1000 µg/mL ([3]; Comp. Conc. 1000 µg/mL, n = 3): 65.39 ± 0.4%; inhibition at 62.5 µg/mL ([4]; Comp. Conc. 62.5 µg/mL, n = 3): 58.15 ± 0.22%; inhibition at 125 µg/mL ([4]; Comp. Conc. 125 µg/mL, n = 3): 63.4 ± 0.71%; inhibition at 250 µg/mL ([4]; Comp. Conc. 250 µg/mL, n = 3): 68.39 ± 0.35%; inhibition at 500 µg/mL ([4]; Comp. Conc. 500 µg/mL, n = 3): 73.42 ± 0.12%; inhibition at 1000 µg/mL ([4]; Comp. Conc. 1000 µg/mL, n = 3): 77.73 ± 0.03%; IC50 ([4]; read-out: IC50, inhibition of butyrylcholinesterase (converted)): 258 µM
O=C(O)Cc1cccc(Cl)c1 [L^2, 3-chlorophenyl acetic acid] |  |  |  |  |  |  |  |  |  |  |  |  |  |  |  |  |  |  |  |  | IC50 [3]: 234 µM; inhibition at 62.5 µg/mL [3]: 50.35 ± 0.11%; inhibition at 125 µg/mL [3]: 54.02 ± 0.24%; inhibition at 250 µg/mL [3]: 57.34 ± 0.35%; inhibition at 500 µg/mL [3]: 62.29 ± 0.32%; inhibition at 1000 µg/mL [3]: 65.39 ± 0.4%; IC50 [4]: 234 µM; inhibition at 62.5 µg/mL [4]: 58.15 ± 0.22%; inhibition at 125 µg/mL [4]: 63.4 ± 0.71%; inhibition at 250 µg/mL [4]: 68.39 ± 0.35%; inhibition at 500 µg/mL [4]: 73.42 ± 0.12%; inhibition at 1000 µg/mL [4]: 77.73 ± 0.03%
